Source: the supplement of paper PMC11208160

Assay: recombinant UMI read abundance after kanamycin selection (control-corrected) (log10(CPM+1)); higher = more efficient recombination; extreme values may be limits of the assay; sequences stand for … in AGTGCAGAGAAAATCGGCCAGTTTTCTCTGCCTGCAGTCCGCATGCCGTGGGACCCCTTGGGTTCTAACCTGTTGCCTAGATTTATGCAGCGGACTGCCTTTCTCCCAAAGTGATAAACCGG…AGGTTGGTTTCACT; site = the 11-nt donor
In short: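 Counts of recombinant UMIs were reported as log10(CPM+1). Before that, they were converted to CPM, averaged over replicates and scaled using control-derived factors. They came from PCR across the donor–target junction after Escherichia coli carrying the pair library and target plasmid was plated on IPTG (0.07 mM) plus kanamycin, or unselected, in two replicates each.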
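Note: IS621 bridge recombinase in Escherichia coli cells against a fixed T5 target plasmid.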

| Sequence | recombinant UMI read abundance (log10) |
| --- | --- |
| TGTTCCCCATGGACCGGTTTTCCCGGTAATCCGTATTTGTT (site TGTTCCCCTAA) | 0.014 |
| TGTTCCCCATGGACCGGTTTTCCCGGTAATCCGTATTTGTT (site TGTTCCCCTCA) | 0.0148 |
| TGTTCCCCATGGACCGGTTTTCCCGGTAATCCGTATTTGTT (site TGTTCCCCTGA) | 0 |
| TGTTCCCCATGGACCGGTTTTCCCGGTAATCCGTATTTGTT (site TGTTCCCCTTA) | 0.0133 |
| TGTTCCGCATGGACCGGTTTTCCCGGTAATCCGTATTTGTA (site TGTTCCACTTA) | 0.00713 |
| TGTTCCGCATGGACCGGTTTTCCCGGTAATCCGTATTTGTA (site TGTTCCCCTTA) | 0.0203 |
| TGTTCCGCATGGACCGGTTTTCCCGGTAATCCGTATTTGTA (site TGTTCCGCTTA) | 0.0982 |
| TGTTCCGCATGGACCGGTTTTCCCGGTAATCCGTATTTGTA (site TGTTCCTCTTA) | 0 |
| TGTTCTCCATGGACCGGTTTTCCCGGTAATCCGTATTTGTA (site TGTTCACCTTA) | 0.0104 |
| TGTTCTCCATGGACCGGTTTTCCCGGTAATCCGTATTTGTA (site TGTTCCCCTTA) | 0.00777 |
| TGTTCTCCATGGACCGGTTTTCCCGGTAATCCGTATTTGTA (site TGTTCGCCTTA) | 0.0191 |
| TGTTCTCCATGGACCGGTTTTCCCGGTAATCCGTATTTGTA (site TGTTCTCCTTA) | 0.679 |
| TGTTGGACATGGACCGGTTTTCCCGGTAATCCGTATTTGTG (site TGTTGGACTCA) | 0.117 |
| TGTTGTGCATGGACCGGTTTTCCCGGTAATCCGTATTTGCG (site TGTTGTGCTCG) | 0.684 |
| TTAAGAGCATGGACCGGTTTTCCCGGTAATCCGTATTTGCA (site TTAAGAGCTTG) | 2.63 |
| TTAAGGCCATGGACCGGTTTTCCCGGTAATCCGTATTTGAC (site ATAAGGCCTGT) | 0 |
| TTAAGGCCATGGACCGGTTTTCCCGGTAATCCGTATTTGAC (site CTAAGGCCTGT) | 0 |
| TTAAGGCCATGGACCGGTTTTCCCGGTAATCCGTATTTGAC (site GTAAGGCCTGT) | 0 |
| TTAAGGCCATGGACCGGTTTTCCCGGTAATCCGTATTTGAC (site TTAAGGCCTGT) | 0 |
| TTAAGTCCATGGACCGGTTTTCCCGGTAATCCGTATTTGTA (site TAAAGTCCTTA) | 0.00903 |
| TTAAGTCCATGGACCGGTTTTCCCGGTAATCCGTATTTGTA (site TCAAGTCCTTA) | 0.361 |
| TTAAGTCCATGGACCGGTTTTCCCGGTAATCCGTATTTGTA (site TGAAGTCCTTA) | 0.0153 |
| TTAAGTCCATGGACCGGTTTTCCCGGTAATCCGTATTTGTA (site TTAAGTCCTTA) | 1.44 |
| TTAATAGCATGGACCGGTTTTCCCGGTAATCCGTATTTGAT (site TTAATAGCTAT) | 1.76 |
| TTAATTCCATGGACCGGTTTTCCCGGTAATCCGTATTTGTG (site TTAATTCCTCA) | 0.4 |

| Sequence | recombinant UMI read abundance (log10) |
| --- | --- |
| TTACAACCATGGACCGGTTTTCCCGGTAATCCGTATTTGCA (site TTACAACCTTG) | 0 |
| TTACACTCATGGACCGGTTTTCCCGGTAATCCGTATTTGAT (site TTACACTCTAT) | 2.95 |
| TTACAGACATGGACCGGTTTTCCCGGTAATCCGTATTTGAG (site TTACAGACTCT) | 1.21 |
| TTACGAACATGGACCGGTTTTCCCGGTAATCCGTATTTGAC (site TTACGAACTGT) | 2.28 |
| TTACTAACATGGACCGGTTTTCCCGGTAATCCGTATTTGGA (site ATACTAACTTC) | 0.0425 |
| TTACTAACATGGACCGGTTTTCCCGGTAATCCGTATTTGGA (site CTACTAACTTC) | 0.457 |
| TTACTAACATGGACCGGTTTTCCCGGTAATCCGTATTTGGA (site GTACTAACTTC) | 0.288 |
| TTACTAACATGGACCGGTTTTCCCGGTAATCCGTATTTGGA (site TTACTAACTTC) | 0.363 |
| TTAGAATCATGGACCGGTTTTCCCGGTAATCCGTATTTGAC (site CTAGTATCTGT) | 0 |
| TTAGAATCATGGACCGGTTTTCCCGGTAATCCGTATTTGAC (site TTAGAATCTGT) | 1.48 |
| TTAGCTACATGGACCGGTTTTCCCGGTAATCCGTATTTGTG (site TTAGCTACTCA) | 0.319 |
| TTAGCTACATGGACCGGTTTTCCCGGTAATCCGTATTTGTG (site TTAGCTCCTCA) | 0.00713 |
| TTAGCTACATGGACCGGTTTTCCCGGTAATCCGTATTTGTG (site TTAGCTGCTCA) | 0.0109 |
| TTAGCTACATGGACCGGTTTTCCCGGTAATCCGTATTTGTG (site TTAGCTTCTCA) | 0.0149 |
| TTAGCTGCATGGACCGGTTTTCCCGGTAATCCGTATTTGTC (site TTAGCTGCTAA) | 0.00712 |
| TTAGCTGCATGGACCGGTTTTCCCGGTAATCCGTATTTGTC (site TTAGCTGCTCA) | 0.00796 |
| TTAGCTGCATGGACCGGTTTTCCCGGTAATCCGTATTTGTC (site TTAGCTGCTGA) | 2.26 |
| TTAGCTGCATGGACCGGTTTTCCCGGTAATCCGTATTTGTC (site TTAGCTGCTTA) | 0.15 |
| TTAGTATCATGGACCGGTTTTCCCGGTAATCCGTATTTGAC (site ATAGTATCTGT) | 2.12 |
| TTAGTATCATGGACCGGTTTTCCCGGTAATCCGTATTTGAC (site CTAGTATCTGT) | 2.18 |
| TTAGTATCATGGACCGGTTTTCCCGGTAATCCGTATTTGAC (site GTAGTATCTGT) | 0.348 |
| TTAGTATCATGGACCGGTTTTCCCGGTAATCCGTATTTGAC (site TTAGTATCTGT) | 2.84 |
| TTAGTCACATGGACCGGTTTTCCCGGTAATCCGTATTTGGG (site TTAGTCACTCC) | 0.0104 |
| TTAGTCGCATGGACCGGTTTTCCCGGTAATCCGTATTTGCG (site ATAGTCGCTCG) | 0.0346 |
| TTAGTCGCATGGACCGGTTTTCCCGGTAATCCGTATTTGCG (site CTAGTCGCTCG) | 0.00978 |

| Sequence | recombinant UMI read abundance (log10) |
| --- | --- |
| TTAGTCGCATGGACCGGTTTTCCCGGTAATCCGTATTTGCG (site GTAGTCGCTCG) | 0.00638 |
| TTAGTCGCATGGACCGGTTTTCCCGGTAATCCGTATTTGCG (site TTAGTCGCTCG) | 0.224 |
| TTAGTTACATGGACCGGTTTTCCCGGTAATCCGTATTTGGC (site TTAGTTACTGC) | 0.857 |
| TTATCATCATGGACCGGTTTTCCCGGTAATCCGTATTTGCA (site TTATCATCTTG) | 1.53 |
| TTATCGTCATGGACCGGTTTTCCCGGTAATCCGTATTTGGC (site TTATCGTCTGC) | 1.36 |
| TTATCTGCATGGACCGGTTTTCCCGGTAATCCGTATTTGAT (site TTATCTGCTAT) | 0.557 |
| TTATGCACATGGACCGGTTTTCCCGGTAATCCGTATTTGTA (site ATATGCACTTA) | 0.0128 |
| TTATGCACATGGACCGGTTTTCCCGGTAATCCGTATTTGTA (site CTATGCACTTA) | 0.34 |
| TTATGCACATGGACCGGTTTTCCCGGTAATCCGTATTTGTA (site GTATGCACTTA) | 0.0305 |
| TTATGCACATGGACCGGTTTTCCCGGTAATCCGTATTTGTA (site TTATGCACTTA) | 0.769 |
| TTATTCCCATGGACCGGTTTTCCCGGTAATCCGTATTTGCA (site TTATTCCCTTG) | 0 |
| TTCAATGCATGGACCGGTTTTCCCGGTAATCCGTATTTGCA (site TTCAATGCTTG) | 0 |
| TTCAGAGCATGGACCGGTTTTCCCGGTAATCCGTATTTGCC (site TTCAGAGCTGG) | 0 |
| TTCAGCTCATGGACCGGTTTTCCCGGTAATCCGTATTTGGT (site TTCAGCTCTAC) | 0.00826 |
| TTCAGTGCATGGACCGGTTTTCCCGGTAATCCGTATTTGGC (site TTCAGTGCTGC) | 0 |
| TTCATACCATGGACCGGTTTTCCCGGTAATCCGTATTTGCC (site TTCATACCTGG) | 0 |
| TTCCAGACATGGACCGGTTTTCCCGGTAATCCGTATTTGTA (site TTCCAGACTTA) | 0.13 |
| TTCCCGCCATGGACCGGTTTTCCCGGTAATCCGTATTTGTT (site TTCCCGCCTAA) | 0.00311 |
| TTCCGCGCATGGACCGGTTTTCCCGGTAATCCGTATTTGCC (site TTCCGCGCTGG) | 0.632 |
| TTCCTAGCATGGACCGGTTTTCCCGGTAATCCGTATTTGAA (site TTCCTAGCTTT) | 0.0135 |
| TTCCTATCATGGACCGGTTTTCCCGGTAATCCGTATTTGCA (site TTCCTATCTTG) | 1.53 |
| TTCGAGCCATGGACCGGTTTTCCCGGTAATCCGTATTTGAC (site TTCGAGCCTGT) | 0 |
| TTCGCGGCATGGACCGGTTTTCCCGGTAATCCGTATTTGCT (site TTAGCGGCTAG) | 0.33 |
| TTCGCGGCATGGACCGGTTTTCCCGGTAATCCGTATTTGCT (site TTCGCGGCTAG) | 0.587 |
| TTCGCGGCATGGACCGGTTTTCCCGGTAATCCGTATTTGCT (site TTGGCGGCTAG) | 0.00776 |
